We go through 18 compounds from patent publication US10464964B2, “Galactoside inhibitor of galectins” (Galecto Biotech AB, priority 2015, dated 2019).

≈ marks a conversion by molar mass, not a printed value. Where two headings read alike, the source gives them in different places. Some results are limits rather than exact numbers.

A short description of one data set: Solubility. The format is physicochemical.
The target in a further data set is galectin-3 (Homo sapiens, UniProt P17931). The data set can be described thus: fluorescence anisotropy assay, inhibition of galectin / fluorescein tagged saccharide probe interaction. (In general: In fluorescence polarisation assays a small probe gives low polarisation when free and higher when bound to something large.)
The target in a further data set is Galectin 1 (Homo sapiens, UniProt P09382). Described as above.
Another data set has as its system galectins. The following applies: cited from earlier work.
Where [1] appears, read: aqueous buffer, 0.1 M phosphate buffer pH 6.5, read-out: Solubility buffer.
Where [2] appears, read: water, read-out: Solubility water.

Chain of Galectin 1 (P09382 whole entry): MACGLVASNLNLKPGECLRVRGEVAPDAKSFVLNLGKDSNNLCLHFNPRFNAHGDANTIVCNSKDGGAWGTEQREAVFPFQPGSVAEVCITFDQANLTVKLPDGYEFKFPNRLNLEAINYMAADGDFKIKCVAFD
Chain of galectin-3 (P17931 whole entry): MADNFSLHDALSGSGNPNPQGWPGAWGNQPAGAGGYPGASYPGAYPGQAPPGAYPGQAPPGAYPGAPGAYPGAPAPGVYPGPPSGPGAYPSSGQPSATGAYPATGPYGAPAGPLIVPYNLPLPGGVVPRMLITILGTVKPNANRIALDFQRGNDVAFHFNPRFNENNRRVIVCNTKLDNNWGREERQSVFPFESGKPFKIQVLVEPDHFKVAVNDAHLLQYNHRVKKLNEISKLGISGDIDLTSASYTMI

As a reminder, the solubility is how much of the substance goes into solution per volume. The Kd is the concentration at which binding is half-saturated. Take `OCC1O[C@@H](SC2O[C@H](CO)C(O)C(n3cc(-c4ccc(F)cn4)nn3)[C@H]2O)C(O)C(n2cc(-c3ccc(F)cn3)nn2)[C@H]1O` (stereo in doubt) [Example S4a, 3,3′-Dideoxy-3,3′-bis-[4-(5-fluoro-2-pyridin-2-yl)-1H-1,2,3-triazol-1-yl]-1,1′-sulfanediyl-di-β-D-galactopyranoside]: the solubility in the data set “Solubility” (setting [1]) stood at 2600 µg/mL (≈ 4000 µM); in the data set “Solubility” (setting [2]), 4300 µg/mL (≈ 6610 µM). Also, the Kd was found to be 0.01 µM on galectin-3 and 0.021 µM on Galectin 1.
In the case of `Cn1cncc1-c1cn(C2C(O)[C@H](SC3O[C@H](CO)C(O)C(n4cc(-c5cncn5C)nn4)[C@H]3O)OC(CO)[C@@H]2O)nn1` (stereo in doubt) [Example S4c, 3,3′-Dideoxy-3,3′-bis-[4-(1-methyl-1H-imidazol-5-yl)-1H-1,2,3-triazol-1-yl]-1,1′-sulfanediyl-di-β-D-galactopyranoside], the Kd was 0.131 µM at galectin-3 and 0.6 µM on Galectin 1.
Turning to `OCC1O[C@@H](SC2O[C@H](CO)C(O)C(n3cc(-c4ncc(C(F)(F)F)cc4Cl)nn3)[C@H]2O)C(O)C(n2cc(-c3ncc(C(F)(F)F)cc3Cl)nn2)[C@H]1O` (stereo in doubt) [Example S4d, 3,3′-Dideoxy-3,3′-bis-[4-(3-chloro-5-trifluoromethyl-pyridin-2-yl)-1H-1,2,3-triazol-1-yl]-1,1′-sulfanediyl-di-β-D-galactopyranoside], the solubility in “Solubility” (setting [1]) amounted to 200 µg/mL (≈ 244 µM). For the same compound, the Kd is 0.025 µM at galectin-3 and 0.74 µM on Galectin 1.
For `OCC1O[C@@H](SC2O[C@H](CO)C(O)C(n3cc(-c4ccccn4)nn3)[C@H]2O)C(O)C(n2cc(-c3ccccn3)nn2)[C@H]1O` (stereo in doubt) [Example S4f, 3,3′-Dideoxy-3,3′-bis-[4-(pyridin-2-yl)-1H-1,2,3-triazol-1-yl]-1,1′-sulfanediyl-di-β-D-galactopyranoside] the same measures were 450 µg/mL (≈ 732 µM), 0.042 µM and 0.21 µM.
In the case of `OCC1O[C@@H](SC2O[C@H](CO)C(O)C(n3cc(-c4ccc(F)cn4)nn3)[C@H]2O)C(O)C(n2cc(-c3cc(F)c(F)c(F)c3)nn2)[C@H]1O` (stereo in doubt) [Example S7, 3,3′-Dideoxy-3-[4-(5-fluoropyridin-2-yl)-1H-1,2,3-triazol-1-yl]-3′-[4-(3,4,5-trifluorophenyl)-1H-1,2,3-triazol-1-yl]-1,1′-sulfanediyl-di-β-D-galactopyranoside], the figures for the Kd at galectin-3 and at Galectin 1 were less than 0.005 µM and 0.04 µM, respectively.
Take `OCC1O[C@@H](SC2O[C@H](CO)C(O)C(n3cc(-c4cccnc4)nn3)[C@H]2O)C(O)C(n2cc(-c3cc(F)c(F)c(F)c3)nn2)[C@H]1O` (stereo in doubt) [Example S8a, 3,3′-3-[4-(pyridin-3-yl)-1H-1,2,3-triazol-1-yl]-3′-[4-(3,4,5-trifluorophenyl)-1H-1,2,3-triazol-1-yl]-1,1′-sulfanediyl-di-β-D-galactopyranoside]: in “Solubility” (setting [1]), the solubility was 41 µg/mL (≈ 61.4 µM). Besides, the Kd at galectin-3 came to 0.002 µM; at Galectin 1, 0.038 µM.
With `OCC1O[C@@H](SC2O[C@H](CO)C(O)C(n3cc(-c4cncnc4)nn3)[C@H]2O)C(O)C(n2cc(-c3cc(F)c(F)c(F)c3)nn2)[C@H]1O` (stereo in doubt) [Example S8b, 3,3′-Dideoxy-3-[4-(1,3-pyrimidin-5-yl)-1H-1,2,3-triazol-1-yl]-3′-[4-(3,4,5-trifluorophenyl)-1H-1,2,3-triazol-1-yl]-1,1′-sulfanediyl-di-β-D-galactopyranoside], the solubility in the data set “Solubility” (setting [1]) was 360 µg/mL (≈ 538 µM). Further, the Kd on galectin-3 was less than 0.002 µM; at Galectin 1, 0.08 µM.
For `OCC1O[C@@H](SC2O[C@H](CO)C(O)C(n3cc(-c4ncccn4)nn3)[C@H]2O)C(O)C(n2cc(-c3cc(F)c(F)c(F)c3)nn2)[C@H]1O` (stereo in doubt) [Example S8c, 3,3′-Dideoxy-3-[4-(1,3-pyrimidin-2-yl)-1H-1,2,3-triazol-1-yl]-3′-[4-(3,4,5-trifluorophenyl)-1H-1,2,3-triazol-1-yl]-1,1′-sulfanediyl-di-β-D-galactopyranoside] the same measures were 4600 µg/mL (≈ 6880 µM), less than 0.002 µM and 0.07 µM.
For `OCC1O[C@@H](SC2O[C@H](CO)C(O)C(n3cc(-c4ccccn4)nn3)[C@H]2O)C(O)C(n2cc(-c3cc(F)c(F)c(F)c3)nn2)[C@H]1O` (stereo in doubt) [Example S8d, 3,3′-Dideoxy-3-[4-(pyridin-2-yl)-1H-1,2,3-triazol-1-yl]-3′-[4-(3,4,5-trifluorophenyl)-1H-1,2,3-triazol-1-yl]-1,1′-sulfanediyl-di-β-D-galactopyranoside], in the data set “Solubility” (setting [1]), the solubility stood at 1400 µg/mL (≈ 2100 µM). Besides, the Kd at galectin-3 came out at 0.001 µM; at Galectin 1, 0.038 µM.
`OCC1O[C@@H](SC2O[C@H](CO)C(O)C(n3cc(-c4ccncc4)nn3)[C@H]2O)C(O)C(n2cc(-c3cc(F)c(F)c(F)c3)nn2)[C@H]1O` (stereo in doubt) [Example S8e, 3,3′-Dideoxy-3-[4-(pyridin-4-yl)-1H-1,2,3-triazol-1-yl]-3′-[4-(3,4,5-trifluorophenyl)-1H-1,2,3-triazol-1-yl]-1,1′-sulfanediyl-di-β-D-galactopyranoside]: the solubility in the data set “Solubility” (setting [1]) is 1300 µg/mL (≈ 1950 µM). Also, the results for the Kd at galectin-3 and at Galectin 1 were 0.001 µM and 0.072 µM, respectively.
In the same order, the values of `CC(=O)Nc1ccc(-c2cn(C3C(O)[C@@H](CO)OC(S[C@@H]4OC(CO)[C@H](O)C(n5cc(-c6cc(F)c(F)c(F)c6)nn5)C4O)[C@@H]3O)nn2)cn1` (stereo in doubt) [Example S8f, 3-[4-((2-acetamid-N-yl)-pyridin-5-yl)-3,3′-dideoxy-1H-1,2,3-triazol-1-yl]-3′-[4-(3,4,5-trifluorophenyl)-1H-1,2,3-triazol-1-yl]-1,1′-sulfanediyl-di-β-D-galactopyranoside] are 770 µg/mL (≈ 1060 µM), 0.005 µM and 0.149 µM.
For `Nc1ccc(-c2cn(C3C(O)[C@@H](CO)OC(S[C@@H]4OC(CO)[C@H](O)C(n5cc(-c6cc(F)c(F)c(F)c6)nn5)C4O)[C@@H]3O)nn2)cn1` (stereo in doubt) [Example S8g, 3-[4-(2-aminopyridin-5-yl)-3,3′-dideoxy-1H-1,2,3-triazol-1-yl]-3′-[4-(3,4,5-trifluorophenyl)-1H-1,2,3-triazol-1-yl]-1,1′-sulfanediyl-di-β-D-galactopyranoside] the same measures were 1800 µg/mL (≈ 2640 µM), less than 0.002 µM and 0.034 µM.
In the same order, the values of `OCC1O[C@@H](SC2O[C@H](CO)C(O)C(n3cc(-c4ncc(F)cn4)nn3)[C@H]2O)C(O)C(n2cc(-c3cc(F)c(F)c(F)c3)nn2)[C@H]1O` (stereo in doubt) [Example S8h, 3,3′-Dideoxy-3-[4-(5-fluoro-1,3-pyrimidin-2-yl)-1H-1,2,3-triazol-1-yl]-3′-[4-(3,4,5-trifluorophenyl)-1H-1,2,3-triazol-1-yl]-1,1′-sulfanediyl-di-β-D-galactopyranoside] are 3300 µg/mL (≈ 4810 µM), less than 0.002 µM and 0.055 µM.
Turning to `O=C[C@H](O)[C@@H](O)[C@@H](O)[C@H](O)CO` [D-galactose], the “affinity, times lower than lactose” value in the data set with galectins (relative to lactose) is listed as 50-100 times.
`COc1ccc(-c2cn(C3C(O)[C@@H](CO)OC(S[C@@H]4OC(CO)[C@H](O)[C@H](n5cc(-c6ccc(OC)nc6)nn5)C4O)[C@@H]3O)nn2)cn1` (stereo partly drawn) [Example S4b, 3,3′-Dideoxy-3,3′-bis-[4-(6-methoxypyridin-3-yl)-1H-1,2,3-triazol-1-yl]-1,1′-sulfanediyl-di-β-D-galactopyranoside]: the Kd on galectin-3 came out at 0.012 µM; on Galectin 1, 0.12 µM.
On to `OCC1O[C@@H](S[C@@H]2O[C@H](CO)C(O)C(n3cc(-c4cncnc4)nn3)[C@H]2O)C(O)[C@@H](n2cc(-c3cncnc3)nn2)[C@H]1O` (stereo partly drawn) [Example S4e, 3,3′-Dideoxy-3,3′-bis-[4-(pyrimidin-5-yl)-1H-1,2,3-triazol-1-yl]-1,1′-sulfanediyl-di-β-D-galactopyranoside], for which the solubility in “Solubility” (setting [1]) amounted to 7 µg/mL (≈ 11.4 µM). For the same compound, the Kd on galectin-3 came to 0.044 µM; on Galectin 1, 0.39 µM.
Turning to `OCC1O[C@@H](SC2O[C@H](CO)C(O)C(n3cc(-c4cccc(F)c4)nn3)[C@H]2O)C(O)[C@@H](n2cc(-c3cccc(F)c3)nn2)[C@H]1O` (stereo partly drawn) [Ref 1, 3,3′-bis-[4-(3-fluorophenyl)-1H-1,2,3-triazol-1-yl]-1,1′-sulfanediyl-di-β-D-galactopyranoside, reference compound], the solubility in the data set “Solubility” (setting [2]) is 400 µg/mL (≈ 617 µM).
As for `OC[C@H]1O[C@@H](O[C@H]2[C@H](O)[C@@H](O)C(O)O[C@@H]2CO)[C@H](O)[C@@H](O)[C@H]1O` (stereo partly shown) [lactose], the equilibrium dissociation constant (Kd) on galectins (all galectins) is 500 to 1000 µM.
